Reference: patent publication US20240101510A1, “APYRASE INHIBITORS” (Texas Crop Science, priority 2022, published 2024)

Key:
Microdochium nivale = experiment: In vitro assessment of combination activity with fungicides on agar; format: cell-based; conditions: fungicide at a rate just below that giving any control; visual assessment of % control;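 also: scored as inactive or active or highly active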
Method: (§1) Method 2: In Vitro Assessment of Combination Activity
(§2) Selected compounds were assessed in combination with fungicides against a range of commercially important plant pathogenic fungi.
(§3) The test was conducted as follows. A fungicide was applied to a fungal plant pathogen at a rate slightly below that at which it gave any control, in combination with a suitable dose of the test compound. The test compound was recorded as active if control of the pathogen was observed.
(§4) In more detail, the test was conducted as follows. For each combination of fungicide, pathogen and test compound, the following wells were used. Well 1 contained a fungal pathogen growing on agar, and a fungicide at a rate just below that at which it gave any control of the pathogen. Well 2 was the same as Well 1, except that the test compound was also added at Rate 1. Well 3 was the same as Well 2, except that the test compound was added at Rate 2, where Rate 2 was higher than Rate 1. Finally, as a benchmark, Well 4 was the same as Well 1, except that it contained the fungicide at a higher rate, at which it gave partial control of the pathogen. Each of the Wells 1 to 4 were run in duplicate, giving a total of 8 wells for each combination of fungicide, pathogen and test compound. For each well, after a suitable period of incubation, a visual assessment of the % control of the pathogen by the fungicide was made.
(§5) The following fungicides were used in this assay: azoxystrobin, fluxapyroxad, and desthio prothioconazole. The following fungal pathogens were used in this assay. First, a strain of Zymoseptoria tritici with a reduced susceptibility to strobilurin fungicides; second a strain of Zymoseptoria tritici with a reduced susceptibility to SDHI fungicides (i.e., those that inhibit succinate dehydrogenase); and third, Microdochium nivale.

[1] = tested on: Zymoseptoria tritici with a reduced susceptibility to SDHI fungicides; experiment: as above; format: cell-based; conditions: fungicide at a rate just below that giving any control; visual assessment of % control;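 also: scored as inactive or active or highly active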
Method: as §1, §2, §3, §4, §5

[2] = tested on: Zymoseptoria tritici with a reduced susceptibility to strobilurin fungicides; experiment: as above; format: cell-based; conditions: fungicide at a rate just below that giving any control; visual assessment of % control;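 also: scored as inactive or active or highly active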
Method: as §1, §2, §3, §4, §5

[3] = tested on: Botrytis cinerea on tomatoes; experiment: Greenhouse crop test in combination with commercial fungicide; format: in vivo; conditions: for control of Botrytis by Amistar in combination with test compound: Amistar 0.03 L/ha; for activity against Botrytis of Balaya in combination with test compound: compared to Balaya alone; for control of Botrytis by Proline in combination with test compound: Proline 0.00075 L/ha, compared to Proline alone; for control of Botrytis by Imtrex in combination with test compound: Imtrex 0.005 L/ha, compared to Imtrex alone or with Roux Compound 15 at 30 ppm
Method: (§6) Method 3: Greenhouse Crop Tests
(§7) In this method, exemplary compounds were evaluated for their ability to control Zymoseptoria tritici on wheat, Botrytis cinerea on tomatoes, Asian Soya Rust (Phakopsora pachyrhizi) on soybean, and Brown Rust (Puccinia recondita) on wheat, in a controlled greenhouse environment in combination with one of four fungicides, Amistar, Imtrex, Proline or Balaya. In these studies, soybean cultivar Siverka, tomato (Money maker) and wheat plants (JB Diego) were used. Seeds were sown in 9 cm diameter pots to a depth of 1 to 2 cm using Petersfield potting compost (75% medium grade peat, 12% screened sterilized loam, 3% medium grade vermiculite, 10% grit (5 mm screened, lime free), 1.5 kg PG mix per m3, lime to pH5.5-6.0 and wetting agent (Vitax Ultrawet 200 ml per m3) and germinated/grown at 23° C. under a 16 h day/8 h night light regime. Plants were treated two to three weeks after sowing when they were at the BBCH 11 growth stage (first pair of true leaves (unifoliate) unfolded. A track sprayer was used to treat the plants with the mixture of commercial fungicide and test compound using a water volume of 200 L/ha. Plants were inoculated with the appropriate fungi (pathogen) 24 hours after treatment. Fungal pathogens used were Botrytis cinerea (Grey mold on tomato plants), Zymoseptoria tritici (Septoria leaf blotch on wheat plants), Puccinia triticina (Brown rust on wheat plants) and Phakopsora pachyrhyzi (Asian soy rust on soybean plants). Four replicates were used for each combination of fungicide, pathogen and test compound. Each plant was evaluated once the disease symptoms were fully expressed between seven to twenty days (depending on the pathogen) for % control of the disease. Appropriate controls were used for all experiments, including an ‘inoculation check’ wherein plants were inoculated with their specific pathogen to assess disease levels. Also, each commercial fungicide was tested on its own as a part of each treatment, this being benchmark against which the experimental compounds were evaluated. […] That is, the present compounds, although not fungicidal by themselves, enhance the activity of fungicides.
(§8) In these studies the fungicide was applied at the following rates

apyrase = experiment: In vitro apyrase assay (screen for apyrase inhibitors, phosphate release read at 630 nm); format: biochemical; conditions: inhibitor conc at 1 mM; 1 hr at room temperature; rounded average of two assay results
Method: Method 1: In Vitro Apyrase Assay: Apyrase inhibitors useful as enhancers of pesticidal activity are assessed using an in vitro assay. The method of Windsor, Bio Techniques 33:1024-1030 (November 2002) was used as follows: Screen for Apyrase Inhibitors - 96 well plates were used for the assay: (Greiner bio-one: REF-655901-96 well, PS, F-bottom, Clear, Non-binding) Buffers: • Reaction Buffer: 60 mM Hepes; 3 mM MgCl2, 3 mM CaCl2 and 3 mM ATP (pH 6.5) • Development Buffer A: 2% aqueous ammonium molybdate • Development Buffer B: 11% ascorbic acid in 37.5% TCA in water • Stop buffer C: 2% trisodium citrate in 2% acetic acid solution in water • Add 100 μl of reaction buffer to each well. • Add […] (control) or inhibitor/compound or compounds such as […] or orthovanadate to each well. […] A blank cell indicates either <10% observed inhibition or a large difference between repetitions. In certain examples, the lack of observed inhibition is due to a lack of solubility of the compound under assay conditions, rather than a lack of apyrase inhibitory activity. Roux compound 15 inhibited apyrase in this assay at about 60%.

[4] = tested on: Zymoseptoria tritici on wheat; experiment: Greenhouse crop test in combination with commercial fungicide; format: in vivo; conditions: test compound at 20 ppm; for control of Zymoseptoria tritici by Balaya in combination with test compound: Balaya 0.0015 L/ha, compared to Balaya alone or with Roux Compound 15 at 30 ppm; for control of Zymoseptoria tritici by Proline in combination with test compound: Proline 0.0075 L/ha, compared to Proline alone and with Roux Compound 15
Method: as §6, §7, §8

[5] = tested on: Asian Soya Rust (Phakopsora pachyrhizi) on soybean; experiment: as above; format: in vivo; conditions: test compound at 20 ppm
Method: as §6, §7, §8

[6] = tested on: Brown Rust (Puccinia recondita) on wheat; experiment: as above; format: in vivo; conditions: Imtrex 0.35 L/ha; test compound at 20 ppm
Method: as §6, §7, §8

[7] = test compound rate not printed (same rate for both, the higher rate), compared to Amistar alone
[8] = Balaya 0.0015 L/ha, test compound at 15 ppm

SMILES: C/C(=N\NC(=O)c1cccc(C)c1)c1ccc2ccccc2c1 [Roux compound 15, reference compound]
- activity in combination with azoxystrobin (Microdochium nivale): no activity
- activity in combination with desthio prothioconazole (Microdochium nivale): no activity
- activity in combination with fluxapyroxad (Microdochium nivale): no activity
- activity in combination with azoxystrobin [1]: no activity
- activity in combination with desthio prothioconazole [1]: no activity
- activity in combination with fluxapyroxad [1]: no activity
- activity in combination with azoxystrobin [2]: no activity
- activity in combination with desthio prothioconazole [2]: no activity
- activity in combination with fluxapyroxad [2]: no activity
- control of Botrytis by Amistar in combination with test compound [3, 7]: substantially higher than with Amistar alone
- activity against Botrytis of Balaya in combination with test compound [3, 8]: no more active against Botrytis than Balaya alone
- control of Botrytis by Proline in combination with test compound ([3]; test compound at 30 ppm): notably higher than with Proline alone
- % Inhibition of Apyrase (apyrase): about 60%

SMILES: CCCC/C=N/NC(=O)c1ccccc1 [I-9, (E)-N′-pentylidenebenzohydrazide]
- activity in combination with azoxystrobin (Microdochium nivale): significant activity
- activity in combination with desthio prothioconazole [1]: significant activity
- % Inhibition of Apyrase (apyrase): 19%

SMILES: C/C(=N\NC(=O)c1cccc(C)c1)c1cnc2ccccc2c1 [I-215, (E)-3-methyl-N′-(1-(quinolin-3-yl)ethylidene)benzohydrazide]
- activity in combination with fluxapyroxad (Microdochium nivale): significant activity
- % Inhibition of Apyrase (apyrase): 46%

SMILES: C/C(=N\NC(=O)c1cc(C)ncn1)c1ccc2ccccc2c1 [I-223, (E)-6-methyl-N′-(1-(naphthalen-2-yl)ethylidene)pyrimidine-4-carbohydrazide]
- activity in combination with fluxapyroxad (Microdochium nivale): significant activity
- activity in combination with desthio prothioconazole [2]: significant activity
- control of Zymoseptoria tritici by Balaya in combination with test compound [4]: notable superior results
- control of Zymoseptoria tritici by Proline in combination with test compound [4]: notable superior results
- % Inhibition of Apyrase (apyrase): 10%

SMILES: C/C(=N\NC(=O)c1cccc(F)c1)c1ccccn1 [I-4, (E)-3-fluoro-N′-(1-(pyridin-2-yl)ethylidene)benzohydrazide]
- activity in combination with azoxystrobin (Microdochium nivale): significant activity
- activity in combination with desthio prothioconazole (Microdochium nivale): significant activity
- activity in combination with fluxapyroxad (Microdochium nivale): significant activity
- activity in combination with azoxystrobin [1]: significant activity
- activity in combination with desthio prothioconazole [1]: significant activity
- activity in combination with fluxapyroxad [1]: significant activity
- activity in combination with azoxystrobin [2]: significant activity
- activity in combination with desthio prothioconazole [2]: significant activity
- activity in combination with fluxapyroxad [2]: significant activity
- control of Botrytis by Amistar in combination with test compound ([3]; test compound at 15 ppm, compared to Amistar with Roux Compound 15 at 15 ppm): much higher levels of control
- control of Botrytis by Amistar in combination with test compound [3, 7]: substantially higher than with Amistar alone
- activity against Botrytis of Balaya in combination with test compound [3, 8]: significantly more active
- control of Botrytis by Imtrex in combination with test compound ([3]; test compound at 30 ppm): far superior control
- control of Botrytis by Proline in combination with test compound ([3]; test compound at 30 ppm): notably higher than with Proline alone
- % Inhibition of Apyrase (apyrase): 24%

SMILES: C/C(=N\NC(=O)c1cccc(NS(C)(=O)=O)c1)c1ccc2ccccc2c1 [I-214, (E)-N-(3-(2-(1-(naphthalen-2-yl)ethylidene)hydrazine-1-carobnyl)phenyl)methanesulfonamide]
- activity in combination with fluxapyroxad (Microdochium nivale): significant activity
- activity in combination with desthio prothioconazole [1]: significant activity
- activity in combination with desthio prothioconazole [2]: significant activity
- control of Zymoseptoria tritici by Amistar in combination with test compound ([4]; Amistar 0.1 L/ha, compared to Amistar alone or with Roux Compound 15 at 30 ppm): notably superior control
- control of Zymoseptoria tritici by Balaya in combination with test compound [4]: notably superior control
- control of Zymoseptoria tritici by Imtrex in combination with test compound ([4]; Imtrex 0.02 L/ha, similar to Imtrex with Roux Compound 15 at 15 and 30 ppm): superior control to Imtrex or Proline alone
- control of Zymoseptoria tritici by Proline in combination with test compound [4]: superior control to Imtrex or Proline alone
- activity of Amistar against Asian Soybean Rust with addition of test compound ([5]; Amistar 0.02 L/ha): substantially enhanced
- activity of Balaya against Asian Soybean Rust with addition of test compound ([5]; Balaya 0.03 L/ha): substantially enhanced
- activity of Proline against Asian Soybean Rust with addition of test compound ([5]; Proline 0.15 L/ha): substantially enhanced
- control of Botrytis by Balaya in combination with test compound ([3]; Balaya 0.0015 L/ha, test compound at 20 ppm, compared to Balaya alone or with Roux Compound 15 at 30 ppm): notably superior control
- control of Botrytis by Imtrex in combination with test compound ([3]; test compound at 20 ppm): notably superior control
- activity of Imtrex against Brown Rust with addition of test compound [6]: substantially enhanced
- % Inhibition of Apyrase (apyrase): 55%

SMILES: C/C(=N\NC(=O)c1cc(C)cs1)c1ccc2ccccc2c1 [I-207, (E)-4-methyl-N′-(1-(naphthalen-2-yl)ethylidene)thiophene-2-carbohydrazide]
- % Inhibition of Apyrase (apyrase): 68%

SMILES: C/C(=N\NC(=O)c1cncc(C)c1)c1ccc2ccccc2c1 [I-226, (E)-5-methyl-N′-(1-(naphthalen-2-yl)ethylidene)nicotinohydrazide]
- % Inhibition of Apyrase (apyrase): 1%

SMILES: C/C(=N/NC(=O)c1ccc2nc[nH]c2c1)c1ccc2ccccc2c1 [I-21, (Z)-N′-(1-(naphthalen-2-yl)ethylidene)-1H-benzo[d]imidazole-6-carbohydrazide]
- % Inhibition of Apyrase (apyrase): 12%

SMILES: C/C(=N\NC(=O)c1cccc(S(=O)(=O)N2CCOCC2)c1)c1ccc2ccccc2c1 [I-3, (E)-3-(morpholinosulfonyl)-N′-(1-(naphthalen-2-yl)ethylidene)benzohydrazide]
- % Inhibition of Apyrase (apyrase): 46%
